The results in this text go back to US12594335B2, “Platinum-based drug-/photosensitizer-loaded protein nanoparticle, and preparation method therefor and application thereof” (SOOCHOW UNIVERSITY, priority 2020, dated 2026).

The nature of series [1]: Serum biochemical indexes of liver and kidney functions. In kind it is in vivo, Balb/c mice. To be noted: 5 mg/kg Pt i.v. every other day, 3 times; serum on day 7, 14, 21, 28. From the text:
Inspection of biochemical indexes after action of nanoparticles: In order to determine the toxicity of drugs during metabolism in vivo, biochemical indexes of liver and kidney functions were investigated. […]

Series [2] is described as follows: In-vitro chemical stability (UV absorbance of Ce6 within 72 h). The settings on record: water, phosphate buffer pH 5.5, pH 7.4, culture medium with 10% fetal bovine serum. The format is physicochemical. As for the experimental part:
In-vitro stability of nanoparticles: (1) Chemical stability of nanoparticles: taking 0.1 mL of a nanoparticle solution with the concentration of Ce6 at 20 μmol/L and 0.1 mL of a free Ce6 solution with a concentration of 20 μmol/L, respectively, and adding them respectively to 2.9 mL of pure water, a phosphate buffer with pH 5.5, a phosphate buffer with pH 7.4, and a RPMI 1640 culture medium containing 10% fetal bovine serum; and storing at room temperature and away from light, with 3 copies for each environment. A UV-vis spectrophotometer was used to measure the absorbance change of Ce6 within 72 h.

Series [3] is described as follows: Photostability under 660 nm laser irradiation. In kind it is physicochemical. As for the experimental part:
(2) Photostability of nanoparticles: taking 0.1 mL of a nanoparticle solution with the concentration of Ce6 at 20 μmol/L and 0.1 mL of a free Ce6 solution with a concentration of 20 μmol/L, respectively, and adding them respectively to 2.9 mL of pure water, a phosphate buffer with pH 5.5, and a phosphate buffer with pH 7.4; and using a 660 nm laser with the power of 0.15 W/cm^2 to irradiate the solutions once every 30 s, and immediately measuring the ultraviolet absorption value with a UV-vis spectrophotometer until full 5 min of irradiation.

For the compound `N.N.[Cl][Pt][Cl]` [free CDDP, cis-dichlorodiammine platinum (II)], in series [1], the “kidney indexes Urea and Crea” value is listed as “increased rapidly”; the “liver indexes (ALT, AST, ALP)” value is given as “changed greatly”.

As to chlorin e6 [free Ce6], the “decrease of UV absorption with time” value in series [2] is reported as 20%-40%. The photostability result in series [3] (0.15 W/cm^2, up to 5 min, deionized water, pH 5.5 and pH 7.4 buffers) is recorded as “photobleached quickly”. Also, the “time to completed photobleaching” value in series [3] (acidic environment, 0.15 W/cm^2) was at most 120 s.
